Reference: US4536335A, “Carbapenem antibiotics” (Bristol-Myers Company, priority 1983, dated 1985)
≈ marks a conversion by molar mass, not a printed value.

How the values were obtained:
P. aeruginosa A21213 = assay: In vitro MIC, tube dilution; type: cell-based; conditions: Pseudomonas aeruginosa, A21213, tube dilution, Nutrient Broth, overnight incubation at 37° C.; additional data table
[1] = Half-life in phosphate buffer solution; type: physicochemical; conditions: phosphate buffer, pH 7.4, concentration of 10^-4 M in phosphate buffer pH 7.4 at 36.8° C.; read-out: t1/2 (solution stability) (converted)
Experimental: A solution of para-nitrobenzyl 3-[2-(N-methylthiomorpholinium diphenylphosphate)ethylthio]-6α-[1'-(R)-hydroxyethyl]-7-oxo-1-azabicyclo[3.2.0]hept-2-ene-2-carboxylate (1.31 g, 1.76 mmol) in 0.1 M pH 7.4 phosphate buffer (48.8 mL), tetrahydrofuran (20 mL) and diethyl ether (20 mL) was hydrogenated over 10% pd/C (1.5 g) in a Parr shaker for 1 h at 40 psi. The reaction mixture was diluted with diethyl ether (40 mL) and the phases were separated. The organic phase was washed with water (2×5 mL). The aqueous phases were combined, filtered through a #52 hardened filter paper, washed with diethyl ether (2×20 mL) and pumped under vacuum. The aqueous solution was poured on a silica gel reverse phase column and the desired carbapenem was eluted with 5% acetonitrile-water.
To a solution of p-nitrobenzyl (5R,6S)-3-[2-(1-methylmorpholino)ethylthio]-6-[(R)-1-hydroxyethyl]-7-oxo-1-azabicyclo[3.2.0]hept-2-ene-2-carboxylate diphenylphosphate (0.360 g, 0.49 mmol) in 13 mL of phosphate buffer (0.05 M pH 7.4) was added 0.36 g of 10% palladium-on-charcoal, 20 mL of tetrahydrofuran and 20 mL of diethyl ether. This mixture was hydrogenated (Parr) at 32 psi for 1 h. The mixture was filtered through Celite and the filter pad was washed with H2 O and diethyl ether. The aqueous phase was separated and the pH was adjusted to 7.0 with additional pH 7.4 phosphate buffer. After removing residual organic solvents in vacuo the aqueous solution was applied to a C18 reverse-phase column.
To a solution of (5R,6S)paranitrobenzyl 3-[2-(1,4-dimethyl-1-piperazinium)ethylthio]-6-[1-(R)-hydroxyethyl]-7-oxo- 1-azabicyclo[3.2.0]hept-2-ene-2-carboxylate diphenylphosphate (0.47 g, 0.623 mmol) in wet tetrahydrofuran (25 mL) was added diethyl ether (25 mL), potassium phosphate monobasic-sodium hydroxide buffer (13 mL, pH 7.22) and 10% palladium on charcoal (0.47 g). The resulting mixture was hydrogenated at 23° C. under 40 psi for 1 h. The two layers were separated and the organic layer was extracted with water (2×7 mL).
To a cold (-10° C.) solution of (5R,6S)-3-[2 -(N-methyl-thiomorpholinium)ethylthio]-6-[1-(R)-hydroxyethyl]-7-oxo-1-azabicyclo(3.2.0)-hept-2-ene-2-carboxylate (608 mg, 1.65 mmol) in a 1:1 mixture of acetonitrile-water (9 mL) was added m-chloroperbenzoic acid (334.8 mg, 1.65 mmol) in small portion over a 1 hour period. The mixture was then diluted with water (15 mL) and washed with diethyl ether (3×15 mL).
A mixture of (5R,6S) paranitrobenzyl 3-[2-(1,4,4-trimethyl-1-piperazinium)ethylthio]-6-[1R-hydroxyethyl]-7-oxo- 1-azabicyclo(3.2.0)hept-2-ene-2-carboxylate bischloride (0.40 g, 0.68 mmol), phosphate buffer (30 mL, 0.05M, pH 7.0), tetrahydrofuran (10 mL), ether (30 mL) and 10% palladium on charcoal (0.40 g) was hydrogenated at 23° C. under 35 psi for 1 h. The two phases were separated. The organic phase was extracted with water (10 mL).

C[C@@H](O)[C@H]1C(=O)N2C(C(=O)[O-])=C(SCC[N+]3(C)CCN(C)CC3)C[C@H]12 [Example 4, (5R,6S)3-[2-(1,4-dimethyl-1-piperazinium)-ethylthio]-6-[1-(R)-hydroxyethyl]-7-oxo-1-azabicyclo-[3.2.0]hept-2-ene-2-carboxylate]
MIC (P. aeruginosa A21213): 1 µg/mL (≈ 2.71 µM) | half-life [1]: 12.4 h
